Source: patent publication US9113629B2, “4-amino-6-(4-substituted-phenyl)-picolinates and 6-amino-2-(4-substituted-phenyl)-pyrimidine-4-carboxylates and their use as herbicides” (DOW AGROSCIENCES LLC, priority 2013, dated 2015)
Where two headings read alike, the source gives them in different places.

How the values were obtained:
[1] = tested on: Key Grass and Sedge Weeds as well as Grass Crops; test: Post-emergent Test II herbicidal activity (Table 6); type: in vivo; details: post-emergence, 336 h; for pest or weed control at 70 g/ha: application rate 70 g ai/ha; for pest or weed control at 140 g/ha: application rate 140 g ai/ha
Summary of the method: (§1)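 Spray rates: a highest rate plus ½×, ¼×, ⅛×, 1/16×, all delivered at 187 L/ha to plants at the first–second true leaf stage. Readout is a visual percent injury score at 14 d, where 100 means complete kill.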

[2] = tested on: Key Broadleaf Weed and Crop Species; test: Post-emergent Test II herbicidal activity (Table 5); type: in vivo; details: post-emergence, 336 h, post-emergent, 14 days after application; for pest or weed control at 70 g/ha: 70 g ai/ha; for pest or weed control at 140 g/ha: 140 g ai/ha
Summary of the method: as §1

[3] = Triticum aestivum, TRZSS (wheat), read-out: Visual Growth Reduction (%) 14 Days After Application, TRZSS
[4] = CYPES: yellow nutsedge (Cyperus esculentus), read-out: Visual Growth Reduction (%) 14 Days After Application, CYPES
[5] = DIGSA: crabgrass (Digitaria sanguinalis), read-out: Visual Growth Reduction (%) 14 Days After Application, DIGSA
[6] = ECHCG: barnyardgrass (Echinochloa crus-galli), read-out: Visual Growth Reduction (%) 14 Days After Application, ECHCG
[7] = ORYSA: rice (Oryza sativa), read-out: Visual Growth Reduction (%) 14 Days After Application, ORYSA
[8] = SETFA: giant foxtail (Setaria faberi), read-out: Visual Growth Reduction (%) 14 Days After Application, SETFA
[9] = SORVU: grain sorghum (Sorghum vulgare), read-out: Visual Growth Reduction (%) 14 Days After Application, SORVU
[10] = ZEAMX: maize, corn (Zea mays), read-out: Visual Growth Reduction (%) 14 Days After Application, ZEAMX
[11] = ABUTH: velvetleaf (Abutilon theophrasti), read-out: Visual Growth Reduction (%) 14 Days After Application ABUTH
[12] = AMARE: redroot pigweed (Amaranthus retroflexus), read-out: Visual Growth Reduction (%) 14 Days After Application AMARE
[13] = BRSNN: oilseed-rape, canola (Brassica napus), read-out: Visual Growth Reduction (%) 14 Days After Application BRSNN
[14] = CHEAL: lambsquarters (Chenopodium album), read-out: Visual Growth Reduction (%) 14 Days After Application CHEAL
[15] = EPHHL: wild poinsettia (Euphorbia heterophylla), read-out: Visual Growth Reduction (%) 14 Days After Application EPHHL
[16] = HELAN: sunflower (Helianthus annuus), read-out: Visual Growth Reduction (%) 14 Days After Application HELAN
[17] = VIOTR: wild pansy (Viola tricolor), read-out: Visual Growth Reduction (%) 14 Days After Application VIOTR

Compound	pest or weed control at 70 g/ha [1, 3] [%]	pest or weed control at 140 g/ha [1, 3] [%]	pest or weed control at 70 g/ha [1, 4] [%]	pest or weed control at 140 g/ha [1, 4] [%]	pest or weed control at 70 g/ha [1, 5] [%]	pest or weed control at 140 g/ha [1, 5] [%]	pest or weed control at 70 g/ha [1, 7] [%]	pest or weed control at 140 g/ha [1, 7] [%]	pest or weed control at 70 g/ha [1, 8] [%]	pest or weed control at 140 g/ha [1, 8] [%]	pest or weed control at 70 g/ha [1, 9] [%]	pest or weed control at 140 g/ha [1, 9] [%]	pest or weed control at 70 g/ha [1, 10] [%]	pest or weed control at 140 g/ha [1, 10] [%]	pest or weed control at 70 g/ha [2, 11] [%]	pest or weed control at 140 g/ha [2, 11] [%]	pest or weed control at 70 g/ha [2, 12] [%]	pest or weed control at 140 g/ha [2, 12] [%]	pest or weed control at 70 g/ha [2, 13] [%]	pest or weed control at 140 g/ha [2, 13] [%]	other results
COc1c(N)nc(-c2cc(F)c(I)cc2F)nc1C(=O)O [Compound 119]	45 to 59	60 to 74	45 to 59	45 to 59	45 to 59	60 to 74	0 to 29	0 to 29	60 to 74	60 to 74	60 to 74	60 to 74	60 to 74	60 to 74	75 to 84	85 to 94	85 to 94	95 to 100	95 to 100	95 to 100	pest or weed control at 70 g/ha [1, 6]: 85 to 94%; pest or weed control at 140 g/ha [1, 6]: 85 to 94%; pest or weed control at 70 g/ha [2, 14]: 95 to 100%; pest or weed control at 140 g/ha [2, 14]: 95 to 100%; pest or weed control at 70 g/ha [2, 15]: 95 to 100%; pest or weed control at 140 g/ha [2, 15]: 95 to 100%; pest or weed control at 70 g/ha [2, 16]: 85 to 94%; pest or weed control at 140 g/ha [2, 16]: 85 to 94%; pest or weed control at 70 g/ha [2, 17]: 0 to 29%; pest or weed control at 140 g/ha [2, 17]: 0 to 29%
Nc1cc(-c2ccc(I)cc2F)nc(C(=O)O)c1Cl [Compound 124]	45 to 59	60 to 74	95 to 100	95 to 100	75 to 84	85 to 94	30 to 44	30 to 44	60 to 74	95 to 100	95 to 100	95 to 100	75 to 84	75 to 84	85 to 94	85 to 94	95 to 100	95 to 100	95 to 100	95 to 100	pest or weed control at 70 g/ha [1, 6]: 85 to 94%; pest or weed control at 140 g/ha [1, 6]: 85 to 94%; pest or weed control at 70 g/ha [2, 14]: 95 to 100%; pest or weed control at 140 g/ha [2, 14]: 95 to 100%; pest or weed control at 70 g/ha [2, 15]: 95 to 100%; pest or weed control at 140 g/ha [2, 15]: 95 to 100%; pest or weed control at 70 g/ha [2, 16]: 85 to 94%; pest or weed control at 140 g/ha [2, 16]: 85 to 94%; pest or weed control at 70 g/ha [2, 17]: 95 to 100%; pest or weed control at 140 g/ha [2, 17]: 95 to 100%
Nc1c(Cl)c(C(=O)O)nc(-c2ccc(Br)cc2)c1Cl [Compound 125]	60 to 74	60 to 74	95 to 100	95 to 100	60 to 74	60 to 74	0 to 29	0 to 29	85 to 94	95 to 100	60 to 74	85 to 94	60 to 74	60 to 74	95 to 100	95 to 100	95 to 100	95 to 100	95 to 100	95 to 100	pest or weed control at 70 g/ha [2, 14]: 95 to 100%; pest or weed control at 140 g/ha [2, 14]: 95 to 100%; pest or weed control at 70 g/ha [2, 15]: 30 to 44%; pest or weed control at 140 g/ha [2, 15]: 45 to 59%; pest or weed control at 70 g/ha [2, 16]: 95 to 100%; pest or weed control at 140 g/ha [2, 16]: 95 to 100%; pest or weed control at 70 g/ha [2, 17]: 0 to 29%; pest or weed control at 140 g/ha [2, 17]: 0 to 29%
